The results in this text go back to patent EP0348399B1, “SORBIN AND PEPTIDE DERIVATIVES WHICH INCREASE ABORPTION BY THE MUCOUS MEMBRANES” (INSTITUT NATIONAL DE LA SANTE ET DE LA RECHERCHE MEDICALE …, priority 1988, dated 1992).

The test system of one series is rat. The series is described as follows: Water and electrolyte movements in ligated intestinal loops of the anaesthetised rat, peptides given by intravenous infusion. Type of series: in vivo. To be noted: rat duodenal loop, i.v. infusion, dose 50 pmol/100g, 1 h contact; controls (TEMOINS) = 0; (-) absorption, (+) secretion; mean, groups of 8 or more. As for the experimental part:
Chez le rat privé d'aliment depuis 45 heures mais recevant de l'eau à volonté, une anesthésie est assurée par le pentobarbital sodique, un cathéter est placé sur une jugulaire, trois anses duodénale, jéjunale et iléale sont constituées entre deux ligatures. Un ml de solution test contenant 70 mM de NaCl, 5,2 mM de KCl, […] de CaCl₂, 10 mM de CO₃Na ET 136 mM de mannitol est instillé dans chaque anse, le PEG 4000 marqué au ³H est utilisé comme marqueur non absorbable, le ²²Na ou le ³⁶Cl comme marqueurs des flux bidirectionnels de sodium ou de chlore. La sorbine ou les peptides de synthèse sont administrés par voie veineuse dans du NaCl à 0,9%, à un débit de 3 ml/h. Après une heure de contact, le liquide restant dans la lumière de l'anse est collecté, le volume et les concentrations de Na, Ca, K, Cl et HCO₃ ainsi que la radioactivité liée au tritium, au chlore ou au sodium sont mesurés.
L'absorption est indiquée par un signe (-), la sécrétion par un signe (+). les résultats concernent des groupes de 8 animaux ou plus M ± SEM ^. P<0.05 ^..P<0.01

The nature of series [1]: Arterial blood pressure measured by carotid catheterisation. Type of series: in vivo. The settings on record: measured by catheterisation of the carotid, result in words.

For the compound HEPTAPEPTIDE, in the series on rat, the Cl was -36,1 µeq, the Eau was -0,20 ml and the Na was -30,7 µeq.
Consider `CC[C@H](C)[C@H](NC(=O)[C@H](Cc1ccc(O)cc1)NC(=O)[C@@H](NC(=O)[C@H](CCCNC(=N)N)NC(=O)[C@@H](N)CC(=O)O)C(C)C)C(=O)N[C@@H](Cc1cnc[nH]1)C(=O)N1CCC[C@H]1C(=O)N[C@@H](Cc1ccccc1)C(=O)O` [ANGIOTENSINE II, angiotensine II], for which, in series [1], the “tension artérielle” value is listed as “augmentation de la tension artérielle”.
